Holding throughout (test): growth of human tumour cells (NCI), 48 h
Assay [1] relates to SF-268 CNS.
In assay [2] the test system is U251 CNS.
Assay [3] has as its system SF-295 CNS.
Assay [4] concerns OVCAR-4 ovarian.
Assay [5] has as its system SR leukemia.
Assay [6] has as its system K-562 leukemia.
Assay [7] relates to HT29 colon.
Assay [8] has as its system NCI-H522 lung.
The subject of assay [9] is COLO 205 colon.
Assay [10] has as its system A498 renal.

Data on ten compounds can be found in PubChem BioAssay (NCI).

Structures are written as SMILES.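 Assay format: 96-well plates, 48-hour exposure. GI50: concentration for 50% inhibition of growth. Definition used: TGI = concentration required for complete inhibition of growth.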

Turning to `COC(=O)Oc1nn(C(=O)OC)c(=O)c2ccccc12` (tested in a mixture with another compound), the TGI in [1], in assay [2], in assay [3], in assay [4], in assay [5] and in assay [6] was greater than 100 µM in each case. Also, the TGI was greater than 100 µM in [7], greater than 100 µM in assay [8], greater than 100 µM in assay [9] and 99.4 µM in assay [10].

Regarding `CC1(C)OCC(C2OC(On3nnc4ccc(Cl)cc43)C3OC(C)(C)OC23)O1` (stereo not given), the TGI in assay [1], in assay [2], in [3], in assay [4], in assay [5] and in assay [6] was greater than 100 µM each time. For the same compound, the TGI in [7], in assay [8], in [9] and in assay [10] was greater than 100 µM in each case.

For the compound `COc1cc(-c2[nH]ncc2CCCC(=O)Nc2ccccc2[N+](=O)[O-])ccc1O`, the TGI in assay [1], in assay [2], in assay [3], in assay [4], in [5] and in assay [6] was greater than 100 µM in each case. The TGI in assay [7], in [8], in assay [9] and in [10] was greater than 100 µM throughout.

Consider `Nc1ccc(C(=O)O)c2[nH]c3ccccc3c(=O)c12`, for which the TGI in assay [1], in assay [2], in assay [3], in assay [4], in assay [5] and in assay [6] was greater than 100 µM throughout. Further, the TGI in [7], in assay [8], in assay [9] and in assay [10] was greater than 100 µM in each case.

On to `COc1cc2c(cc1OCCCN1CCN(CCCOc3cc4c(cc3OC)C(=O)C3CCC[C@H]3C=N4)CC1)N=C[C@@H]1CCCC1C2=O` (stereo not given in full), for which the GI50 in assay [1] is 3 µM; in assay [2], 4.91 µM; in [3], 9.4 µM; in [4], 74.3 µM; in assay [5], 0.367 µM; in assay [6] it was 2.09 µM. Besides, the GI50 was 23.3 µM in [7], 0.446 µM in assay [8], 9.29 µM in assay [9] and 2.17 µM in assay [10]. In addition, the TGI is greater than 100 µM in assay [1]; greater than 100 µM in [2]; 79.8 µM in assay [3]; greater than 100 µM in assay [4]; greater than 100 µM in [5]; greater than 100 µM in assay [6]. In addition, the TGI is greater than 68.8 µM in assay [7], greater than 29.6 µM in assay [8], greater than 75.4 µM in assay [9] and 7.49 µM in assay [10].

With `COC12c3ccccc3-c3ccccc3C1[C@@H](C(=O)O)[C@H]2C(=O)O` (stereo not given in full), the TGI in assay [1], in assay [2], in assay [3], in assay [4], in [5] and in assay [6] was greater than 10 µM each time. The TGI in assay [7], in assay [8], in assay [9] and in [10] was greater than 10 µM throughout.

Regarding `Nc1nccc(C#Cc2cncnc2Nc2ccc(OCc3cccc(F)c3)c(Cl)c2)n1`, the GI50 is 4.5 µM in assay [1]; 3.82 µM in assay [2]; 11.7 µM in assay [3]; 9.53 µM in [4]; 3.18 µM in assay [5]; 4.24 µM in assay [6]. The GI50 in assay [7] was 4.57 µM; in assay [8], 2.23 µM; in assay [9], 3.96 µM; in assay [10] it was 5.05 µM. Also, the TGI in assay [1] was 9.28 µM; in [2] it was 7.42 µM; in [3] it was greater than 25 µM; in [4], greater than 25 µM; in [5] it was greater than 25 µM; in assay [6] it was greater than 25 µM. The TGI in assay [7] is 9.05 µM; in assay [8], 5.88 µM; in [9], 8.6 µM; in [10], greater than 14.3 µM.

With `O=C(NCCS(=O)(=O)N1C(=O)C2CCCN2C(=O)[C@@H]1Cc1ccccc1)OCc1ccccc1` (stereo not given in full), the TGI in assay [1], in [2], in [3], in [4], in [5] and in assay [6] was greater than 100 µM each time. The TGI was greater than 100 µM in assay [7], greater than 100 µM in assay [8], 58.4 µM in [9] and 95.9 µM in [10].

`Cn1cccc1C1CC(=O)N(CCC[Se]C#N)C1=O` (stereo not given): the GI50 in assay [1] was 1.92 µM; in assay [2] it was 1.72 µM; in [3], 1.81 µM; in assay [4], 2.35 µM; in [5], 2.76 µM; in assay [6], 3.2 µM. Moreover, the GI50 was 2.72 µM in assay [7], 1.87 µM in assay [8], 2.1 µM in assay [9] and 1.3 µM in assay [10]. Further, the TGI in assay [1] was 3.92 µM; in [2] it was 3.48 µM; in [3], 3.29 µM; in [4], 14 µM; in assay [5], greater than 100 µM; in [6], 29.9 µM. Also, the TGI in assay [7] was 28.6 µM; in assay [8], 4.04 µM; in [9], 4.88 µM; in assay [10], 2.78 µM.

`CC1(C)CCC(CN2CCN(c3ccc(C(=O)NS(=O)(=O)c4ccc(NCC5CCOCC5)c([N+](=O)[O-])c4)c(Oc4cnc5[nH]ccc5c4)c3)CC2)=C(c2ccc(Cl)cc2)C1`: the GI50 in assay [1] is 3.58 µM; in assay [2] it was 2.9 µM; in assay [3] it was 2.35 µM; in [4] it was 3.53 µM; in [5], 3.21 µM; in assay [6], 3.5 µM. Also, the GI50 in assay [7] is 2.49 µM; in assay [8] it was 2.46 µM; in assay [9] it was 1.95 µM; in assay [10], 1.58 µM. Moreover, the TGI in [1] came out at 17.8 µM; in assay [2] it was 11.5 µM; in assay [3], 7.42 µM; in [4], 20.4 µM; in [5] it was 13 µM; in assay [6], 26.9 µM. Besides, the TGI in assay [7] stood at 6.45 µM; in [8], 7.23 µM; in [9], 3.7 µM; in [10] it was 4.43 µM.
